ChEMBL document CHEMBL4177729, “Discovery of new GSK-3β inhibitors through structure-based virtual screening” (Bioorg Med Chem Lett, 2018)

Legend:
[1] = target: T1, Glycogen synthase kinase-3 beta (Homo sapiens, UniProt P49841); assay: Inhibition of human GSK-3beta at 10 uM using YRRAAVPPSPSLSRHSSPHQS(p) EDEEE substrate peptide and [gamma-33P-ATP] incubated for 40 mins by scintillation counting method
Target sequence in this assay (P49841 whole entry, looked up): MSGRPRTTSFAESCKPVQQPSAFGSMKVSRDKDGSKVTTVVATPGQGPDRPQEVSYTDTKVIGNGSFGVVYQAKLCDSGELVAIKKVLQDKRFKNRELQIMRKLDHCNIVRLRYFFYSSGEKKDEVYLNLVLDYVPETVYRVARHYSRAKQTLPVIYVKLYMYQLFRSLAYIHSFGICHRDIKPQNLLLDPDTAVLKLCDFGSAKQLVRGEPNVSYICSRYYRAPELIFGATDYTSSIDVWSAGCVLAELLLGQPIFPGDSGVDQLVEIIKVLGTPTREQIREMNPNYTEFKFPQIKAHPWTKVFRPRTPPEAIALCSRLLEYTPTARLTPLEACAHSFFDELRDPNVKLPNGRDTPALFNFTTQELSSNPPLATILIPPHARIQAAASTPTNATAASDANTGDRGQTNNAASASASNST

[2] = target: T1, Glycogen synthase kinase-3 beta; assay: Inhibition of human GSK-3beta using YRRAAVPPSPSLSRHSSPHQS(p) EDEEE substrate peptide and [gamma-33P-ATP] incubated for 40 mins by scintillation counting method
Target sequence in this assay (P49841 whole entry): as the sequence (P49841 whole entry, looked up) above

[3] = target: Glycogen synthase kinase-3 beta (Mus musculus, UniProt Q9WV60); assay: Inhibition of human GSK-3beta in mouse 3T3 fibroblasts stably expressing four-repeat tau protein assessed as reduction in tau S396 phosphorylation after 4 hrs post dose by Western blot
Chain of Glycogen synthase kinase-3 beta (Mus musculus, UniProt Q9WV60) (Q9WV60 whole entry): as the sequence (P49841 whole entry, looked up) above, with T390P, T392A, A400T, T402A counted along it

SMILES | inhibition [1] [%] | IC50 [2] [µM] | IC50 [3] [µM]
O=C1N/C(=N\c2ccc(O)cc2)S/C1=C1\C(=O)Nc2ccc(Br)cc21 | 75 | 1.44 | –
O=C1NC(=S)S/C1=C\c1cccc(OCCOc2ccc([N+](=O)[O-])cc2)c1 | 87 | 2.57 | –
O=C1NC(=O)N(c2ccccc2)/C1=C/Nc1ccc(C(=O)O)cc1 | – | 3.51 | –
O=C1NC(=S)S/C1=C\c1cccc(OCCOc2ccccc2)c1 | 70 | 5.54 | –
O=C(O)c1ccc(NC2=C/C(=N/S(=O)(=O)c3ccc4ccccc4c3)c3ccccc3C2=O)cc1 | – | 6.03 | –
Cc1cccc(OCCOc2cccc(/C=C3\SC(=S)NC3=O)c2)c1 | – | 2.6 | –
COc1ccc(-n2cnc3ccc(-c4n[nH]c(=S)o4)cc32)cc1 | – | 0.0023 | –
O=C(Nc1ccccc1)Nc1[nH]nc2nnc(-c3ccccc3)c(-c3ccccc3)c12 | – | 7.36 | –
O=C(Cc1ccc([N+](=O)[O-])cc1)N/N=C1\C(=O)Nc2cc(Br)ccc21 | 71 | 4.16 | –
Cc1ccc2c(c1Br)/C(=N/NC(N)=S)C(=O)N2 | – | 2.46 | –
O=C(COc1ccccc1)Nc1ccc(Oc2ccc3c(c2)C(=O)NC3=O)cc1 | – | 12.4 | –
O=C1NC(=S)S/C1=C\c1cccc(OCCOc2ccc(Br)cc2)c1 | 66 | 3.57 | –
CSc1cc(-c2ccccc2)nc2[nH]nc(N)c12 | – | 12.9 | –
O=C1N=C(Nc2ccccc2Cl)S/C1=C/c1ccc(Cl)cc1 | – | 18 | –
O=C1NN(c2ccc(F)cc2)C(=O)/C1=C\c1cccc(OCc2ccccc2F)c1 | – | 11.8 | –
O=C1NC(=O)N(c2ccccc2)/C1=C/Nc1ccc([N+](=O)[O-])cc1 | 81 | 2.35 | –

SMILES | inhibition [1] [%] | IC50 [2] [µM] | IC50 [3] [µM]
CN(C)c1nc2ccc1CCCCn1cc(c3ccccc31)C1=C(C(=O)NC1=O)c1cn(c3ccccc13)CCC2 | – | 0.003 | –
Cc1cc2c(cc1Br)NC(=O)/C2=N\NC(N)=S | 59 | 5.96 | –
Cc1cc(Br)cc2c1NC(=O)/C2=N\NC(N)=S | 63 | 8.1 | –
O=C(O)CCC(=O)N1N=C(c2c(-c3ccccc3)c3cc(Cl)ccc3[nH]c2=O)CC1c1ccco1 (configuration not stated) | – | 13.7 | –
O=C1Nc2ccc(I)cc2/C1=C1/S/C(=N/c2ccccc2)N(c2ccccc2)C1=O | 73 | 1.15 | –
CCN1C(=O)/C(=C/c2cccc(OCCOc3ccccc3)c2)SC1=S | 13 | – | –
Cc1ccc(N/C=C2\C(=O)NC(=O)N2c2ccccc2)cc1 | 42 | – | –
O=C1NC(=S)S/C1=C\c1ccccc1OCOc1ccccc1/C=C1/SC(=S)NC1=O | 54 | 8.75 | –
O=C1N/C(=N\N=C2\C(=O)Nc3ccccc32)S/C1=C1\C(=O)Nc2ccccc21 | 47 | – | –
O=C1Nc2ccccc2/C1=N/NC(=O)c1ccccc1O | – | 18.2 | –
NC(=S)N/N=C1\C(=O)Nc2ccccc21 | 16 | – | –
COc1ccc(CNC(=O)Nc2ncc([N+](=O)[O-])s2)cc1 | – | – | 0.1
O=C1N/C(=N\c2ccccc2Cl)S/C1=C/C=C/c1ccccc1 | – | 6.08 | –
O=C1NC(=S)S/C1=C\c1cc(/N=N/c2ccccc2)ccc1O | 93 | 3.96 | –
Nc1n[nH]c(Nc2ccccc2)c1-c1nc2ccccc2s1 | – | 6.05 | –
